Literature values as cited in patent US4486419A, “5,2',3',4',4",6"-Hexadeoxykanamycin and its 1-N-acylated derivative” (Zaidan Hojin Biseibutsu Kagaku Kenkyu Kai, priority 1982, dated 1984).

Tested on: dibekacin-resistant bacteria
Conditions: background, U.S. Pat. No. 4,107,424; cited from earlier work

NCC[C@H](O)C(=O)N[C@@H]1C[C@H](N)[C@@H](O[C@H]2O[C@H](CN)CC[C@H]2N)[C@H](O)[C@H]1O[C@H]1O[C@H](CO)[C@@H](O)[C@H](N)[C@H]1O [Habekacin, 1-N-[(S)-4-amino-2-hydroxybutyryl] dibekacin]
activity against dibekacin-resistant bacteria: active against dibekacin-resistant bacteria
